# From US9073892B2, “Indazolyl triazol derivatives” (Merck Serono S.A., priority 2010, dated 2015)
# Key:
# IRAK1/4 human = system: T1, IRAK1/4 human; test: IRAK1/4 phosphorylation IC50 (enzymatic assay, table 2); type: biochemical; conditions: human IRAK1/4 phosphorylation
# T1 construct: fused on or other part: His tag and TEV cleavage site at the N-terminus
# In short: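 His-TEV-tagged human IRAK-1 or IRAK-4 (IRAK-4 with STK1-biotin peptide) was incubated in 384-well plates with ATP and compounds in DMSO from 20 µM to 1 nM, with 2% DMSO controls. The buffer was Hepes pH7.0 50 mM with MgCl2, DTT, EGTA and BSA, and reactions ran 2 or 3 hours. Inhibition was reported as IC50.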
# [1] = system: IL1β-induced IL8 release in THP1 cells; test: IRAK IL8 secretion functional assay; type: cell-based; conditions: Homo sapiens; THP-1 cells, IL1β 100 ng/ml overnight, IL8 by HTRF; read-out: IC50, Secretion THP-1/IL-β induced IL8 release
# Excerpt: IRAK IL8 Secretion Functional Assay:
# THP1 cells are human monocytes derived from acute monocytic leukemia. IL1β receptor expressed on the surface membrane of THP1 cells induced IL8 release. IRAKs are kinase signaling downstream of TLRs and TNF, IL-18, IL-33 and IL-1 receptors.
# In cells, IRAK4 is upstream of IRAK1.
# The Human IL8 Kit, provided by CysBio International based in Bagnols/Cèze FR, allows for the quantitative determination of IL-8 in cell-culture supernatants.
# Anti-cytokine IL8 antibodies are respectively labeled with europium Cryptate and XL665. Upon their binding to IL-8 molecules, the two antibodies come into close proximity, allowing FRET (Fluorescence Resonance Energy Transfer) to occur. This FRET increases proportionally to IL-8 concentrations and be converted in IL8 pg amounts.
# THP-1 cells are seeded on Day 1 in 384 well plate with RPMI 1640 at a density of 30 000 cells/well. Compounds 4×/2% DMSO (range of concentrations from 20 μM to 1 nM) and IL1β 4× at 100 ng/ml final are added to cells overnight at 37° C., 5% CO2. Measurement of IL-8 secretion is done by mixing on Day2 10 μl of supernatant with 10 μl of a mix solution of europium Cryptate and XL665 (v:v) as described by supplier.
# HTRF (homogeneous time resolved fluorescence) signal is measured after 3 hours incubation time at 30° C. with a BMG Pherastar reader or equivalent.
IC50 (IRAK1/4 human) [µM],IC50 [1] [µM],Compound
0.1 to 1,0.1 to 1,"O=C(c1ccc(-n2cc(-c3n[nH]c4ccccc34)nn2)cc1)N1CCC(O)C1 (stereo not drawn) [Example 26, 1-{4-[4-(1H-indazol-3-yl)-1H-1,2,3-triazol-1-yl]benzoyl}pyrrolidin-3-ol]"
0.1 to 1,0.1 to 1,"CN(C)C1CCN(C(=O)c2ccc(-n3cc(-c4n[nH]c5ccccc45)nn3)cc2)C1 (stereo not drawn) [Example 27, 1-{4-[4-(1H-indazol-3-yl)-1H-1,2,3-triazol-1-yl]benzoyl}-N,N-dimethylpyrrolidin-3-amine]"
0.1 to 1,0.1 to 1,"O=C(c1ccc(-n2cc(-c3n[nH]c4ccccc34)nn2)cc1)N1CCC(CO)CC1 [Example 28, (1-{4-[4-(1H-indazol-3-yl)-1H-1,2,3-triazol-1-yl]benzoyl}piperidin-4-yl)methanol]"
0.1 to 1,0.1 to 1,"CN(C)CC1CCCN(C(=O)c2ccc(-n3cc(-c4n[nH]c5ccccc45)nn3)cc2)C1 (stereo not drawn) [Example 29, 1-(1-{4-[4-(1H-indazol-3-yl)-1H-1,2,3-triazol-1-yl]benzoyl}piperidin-3-yl)-N,N-dimethylmethanamine]"
< 0.1,0.1 to 1,"O=C(c1ccc(-n2cc(-c3n[nH]c4ccccc34)nn2)cc1)N1CCCC1 [Example 35, 3-{1-[4-(pyrrolidin-1-ylcarbonyl)phenyl]-1H-1,2,3-triazol-4-yl}-1H-indazole]"
0.1 to 1,0.1 to 1,"COCC1CCN(C(=O)c2ccc(-n3cc(-c4n[nH]c5ccccc45)nn3)cc2)CC1 [Example 37, 3-[1-(4-{[4-(methoxymethyl)piperidin-1-yl]carbonyl}phenyl)-1H-1,2,3-triazol-4-yl]-1H-indazole]"
1 to 5,0.1 to 1,"O=C(c1ccc(-n2cc(-c3n[nH]c4ccccc34)nn2)cc1)N1CCCCC1 [Example 38, 3-{1-[4-(piperidin-1-ylcarbonyl)phenyl]-1H-1,2,3-triazol-4-yl}-1H-indazole]"
0.1 to 1,0.1 to 1,"CC(=O)N1CCN(C(=O)c2ccc(-n3cc(-c4n[nH]c5ccccc45)nn3)cc2)CC1 [Example 39, 3-(1-{4-[(4-acetylpiperazin-1-yl)carbonyl]phenyl}-1H-1,2,3-triazol-4-yl)-1H-indazole]"
0.1 to 1,0.1 to 1,"CN1CCCN(C(=O)c2ccc(-n3cc(-c4n[nH]c5ccccc45)nn3)cc2)CC1 [Example 48, 3-(1-{4-[(4-methyl-1,4-diazepan-1-yl)carbonyl]phenyl}-1H-1,2,3-triazol-4-yl)-1H-indazole]"
0.1 to 1,0.1 to 1,"CCN1CCN(C(=O)c2ccc(-n3cc(-c4n[nH]c5ccccc45)nn3)cc2)CC1 [Example 52, 3-(1-{4-[(4-ethylpiperazin-1-yl)carbonyl]phenyl)-1H-1,2,3-triazol-4-yl)-1H-indazole]"
0.1 to 1,0.1 to 1,"O=C(NC1CC1)c1ccc(-n2cc(-c3n[nH]c4ccccc34)nn2)cc1 [Example 53, N-cyclopropyl-4-[4-(1H-indazol-3-yl)-1H-1,2,3-triazol-1-yl]benzamide]"
0.1 to 1,0.1 to 1,"O=C(c1ccc(-n2cc(-c3n[nH]c4ccccc34)nn2)cc1)N1CCC(O)CC1 [Example 71, 1-{4-[4(1H-indazol-3-yl)-1H-1,2,3-triazol-1-yl]benzoyl}piperidin-ol]"

# The remaining lines, values behind:
Compound,IC50 (IRAK1/4 human) [µM],IC50 [1] [µM]
"Cc1ccc2[nH]nc(-c3cn(-c4ccc(CN(C)C)cc4)nn3)c2c1 [Example 10, N,N-dimethyl-1-{4-[4-(5-methyl-1H-indazol-3-yl)-1H-1,2,3-triazol-1-yl]phenyl}methanamine]",0.1 to 1,0.1 to 1
"Cc1ccc2[nH]nc(-c3cn(-c4ccc(CN5CCNCC5)cc4)nn3)c2c1 [Example 11, 5-methyl-3-{1-[4-(piperazin-1-ylmethyl)phenyl]-1H-1,2,3-triazol-4-yl}-1H-indazole]",0.1 to 1,0.1 to 1
"O=C(NCc1ccc(-n2cc(-c3n[nH]c4ccccc34)nn2)cc1)c1ccncc1 [Example 15, N-{4-[4(1H-indazol-3-yl]-1H-1,2,3-triazol-1-yl)benzyl}isonicotinamide]",1 to 5,0.1 to 1
"O=C(Cc1ccc(-n2cc(-c3n[nH]c4ccccc34)nn2)cc1)N1CCCC1 [Example 19, 3-{1-[4-(2-oxo-2-pyrrolidin-1-ylethyl)phenyl]-1H-1,2,3-triazol-4-yl}-1H-indazole]",0.1 to 1,0.1 to 1
"O=C(CCc1ccc(-n2cc(-c3n[nH]c4ccccc34)nn2)cc1)N1CCOCC1 [Example 22, 3-{1-[4-(3-morpholin-4-yl-3-oxopropyl)phenyl]-1H-1,2,3-triazol-4-yl}-1H-indazole]",1 to 5,0.1 to 1
"O=C(CCc1ccc(-n2cc(-c3n[nH]c4ccccc34)nn2)cc1)N1CCCC1 [Example 23, 3-{1-[4-(3-oxo-3-pyrrolidin-1-ylpropyl)phenyl]-1H-1,2,3-triazol-4-yl}-1H-indazole]",1 to 5,0.1 to 1
"COc1cc(-n2cc(-c3n[nH]c4ccccc34)nn2)ccc1C(=O)N(C)C [Example 25, 4-[4-(1H-indazol-3-yl)-1H-1,2,3-triazol-1-yl]-2-methoxy-N,N-dimethylbenzamide]",0.1 to 1,0.1 to 1
"CN1CCC(NC(=O)c2ccc(-n3cc(-c4n[nH]c5ccccc45)nn3)cc2)C1=O (stereo not drawn) [Example 31, 4-[4-(1H-indazol-3-yl)-1H-1,2,3-triazol-1-yl]-N-(1-methyl-2-oxopyrrolidin-3-yl)benzamide]",0.1 to 1,0.1 to 1
"Cc1ccc2[nH]nc(-c3cn(-c4ccc(C(=O)N5CCOCC5)cc4)nn3)c2c1 [Example 32, 5-methyl-3-{1-[4-(morpholin-4-ylcarbonyl)phenyl]-1H-1,2,3-triazol-4-yl}-1H-indazole]",0.1 to 1,0.1 to 1
"COc1cc(-n2cc(-c3n[nH]c4ccccc34)nn2)ccc1C(=O)N1CCOCC1 [Example 34, 3-{1-[3-methoxy-4-(morpholin-4-ylcarbonyl)phenyl]-1H-1,2,3-triazol-4-yl}-1H-indazole]",1 to 5,0.1 to 1
"CN(C)C(=O)c1ccc(-n2cc(-c3n[nH]c4ccccc34)nn2)cc1 [Example 36, 4-[4-(1H-indazol-3-yl)-1H-1,2,3-triazol-1-yl]-N,N-dimethylbenzamide]",0.1 to 1,0.1 to 1
"O=C(NCCCN1CCCC1)c1ccc(-n2cc(-c3n[nH]c4ccccc34)nn2)cc1 [Example 40, 4-[4-(1H-indazol-3-yl)-1H-1,2,3-triazol-1-yl]-N-(3-pyrrolidin-1-ylpropyl)benzamide]",0.1 to 1,0.1 to 1
"CCN(CC)CCCNC(=O)c1ccc(-n2cc(-c3n[nH]c4ccccc34)nn2)cc1 [Example 42, N-[3-(diethylamino)propyl]-4-[4-(1H-indazol-3-yl)-1H-1,2,3-triazol-1-yl]benzamide]",0.1 to 1,0.1 to 1
"CN(CCc1ccncc1)C(=O)c1ccc(-n2cc(-c3n[nH]c4ccccc34)nn2)cc1 [Example 43, 4-[4-(1H-indazol-3-yl)-1H-1,2,3-triazol-1-yl]-N-methyl-N-(2-pyridin-4-ylethyl)benzamide]",0.1 to 1,0.1 to 1
"O=C(NCCN1CCCCC1)c1ccc(-n2cc(-c3n[nH]c4ccccc34)nn2)cc1 [Example 44, 4-[4-(1H-indazol-3-yl)-1H-1,2,3-triazol-1-yl]-N-(2-piperidin-1-ylethyl)benzamide]",0.1 to 1,0.1 to 1
"CCNC(=O)c1ccc(-n2cc(-c3n[nH]c4ccccc34)nn2)cc1 [Example 49, N-ethyl-4-[4-(1H-indazol-3-yl)-1H-1,2,3-triazol-1-yl]benzamide]",0.1 to 1,0.1 to 1
"COCCNC(=O)c1ccc(-n2cc(-c3n[nH]c4ccccc34)nn2)cc1 [Example 50, 4-[4-(1H-indazol-3-yl)-1H-1,2,3-triazol-1-yl]-N-(2-methoxyethyl)benzamide]",0.1 to 1,0.1 to 1
"O=C(NCc1ccco1)c1ccc(-n2cc(-c3n[nH]c4ccccc34)nn2)cc1 [Example 51, N-(2-furylmethyl)-4-[4-(1H-indazol-3-yl)-1H-1,2,3-triazol-1-yl]benzamide]",0.1 to 1,1 to 5
"CNC(=O)c1ccc(-n2cc(-c3n[nH]c4ccccc34)nn2)cc1 [Example 54, 4-[4-(1H-indazol-3-yl)-1H-1,2,3-triazol-1-yl]-N-methylbenzamide]",0.1 to 1,0.1 to 1
O=C(NCC1CC1)c1ccc(-n2cc(-c3n[nH]c4ccccc34)nn2)cc1 [Example 55],0.1 to 1,0.1 to 1
"CCN1CCN(C(=O)c2cccc(-n3cc(-c4n[nH]c5ccccc45)nn3)c2)CC1 [Example 60, 3-(1-{3-[(4-ethylpiperazin-1-yl)carbonyl]phenyl}-1H-1,2,3-triazol-4-yl)-1H-indazole]",1 to 5,1 to 5
